Reference: patent US10077436B2, “Beta-glucosidase enzymes for increased biomass saccharification” (Edeniq, Inc., priority 2013, dated 2018)

System: A-BG (Accellerase® BG from DuPont), commercial beta-glucosidase
Assay: BG kinetics, cellobiose hydrolysis assay (HPLC) with glucose as competitive inhibitor, A-BG
Type: biochemical
Excerpt: The kinetic properties of beta glucosidase are important for cellulosic hydrolysis, since in commercial situations a wide range of substrate concentrations and different product inhibition conditions will be encountered. In this example, a Michaelis-Menten kinetics model was used to describe BG kinetics.
BG activity assay using cellobiose is the other standard assay to measure BG or cellobiase activity, which utilizes hydrolysis of cellobiose by cellobiase into two molecules of glucose, the last step of enzymatic hydrolysis of cellulose. One cellobiase unit (commonly termed as CBU) is defined as the amount of enzyme that converts […] of cellobiose or produces 2 μmol of glucose per min. Briefly, to determine BG activity, 25 μL of diluted enzyme in 50 mM citrate buffer (pH 4.8) equilibrated to 50° C. was mixed with 25 μL cellobiose (or cellobiose/glucose mixture for the kinetic study) to start the reaction. The mixture was incubated at 50° C. for 10 min, and the reaction was terminated by incubating the mixture at 99° C. for 5 min. Different methods are available to measure the glucose produced in the assays. For the kinetic study, HPLC was used.
To determine kinetic properties using cellobiose substrate, duplicate assays with cellobiose concentrations ranging from 0.47 to 15 mM and glucose concentrations of 0, 0.9, 4.5, 6.75, and 8.1 (for A-BG) or 9 (for all the other three BGs) g/L were performed. As for pNPG substrate, the range of cellobiose substrate concentration was chosen to show detectable activity at the lowest substrate concentration and saturation stage at high substrate concentration. […] Moreover, theoretically there are two ways to measure BG activity by HPLC when cellobiose is used as the substrate: tracking consumption of cellobiose or tracking production of glucose. […] In Table 3, A % is defined as follows and is an indicator of measurement sensitivity, since the difference of substrate or product concentrations before and after reaction was used to determine BG activity. Δ%=(start conc. of cellobiose−end conc. of cellobiose)/start conc. of cellobiose×100% (3) Δ%=(end conc. of glucose−start conc. of glucose)/start conc. of glucose×100% (4)
A similar simultaneous nonlinear regression method based on the competitive inhibition equation expressed in Equation (1) was used to determine kinetic parameters of BG towards cellobiose.
The specific activity used here was determined by the initial velocity approach that is required by implementing Michaelis-Menten model (Copeland, 2000). The specific activity was determined by measuring consumption of cellobiose in the first 10 min of reaction and was expressed as μmol min^−1 mg^−1, where mg^−1 means per mg of total protein. The relative activity was determined based on the maximum activity obtained in the absence of initial glucose inhibition.
The above experimental data were fit in the competitive inhibition model as expressed in Equation (1) by simultaneous nonlinear regression.

## OC[C@H]1OC(O)[C@H](O)[C@@H](O)[C@@H]1O (stereo partly drawn) [glucose]
9 g/L (0.9% w/v) initial glucose, cellobiose substrate
  loss of activity towards cellobiose under glucose inhibition: completely lost its activity
Cellobiose substrate, competitive inhibition, pH 4.8, 50° C.
  Ki: 5.2 ± 0.63 mM
Inhibitor influence, Km for cellobiose / Ki for glucose, pH 4.8, 50° C.
  Km/Ki: 1.26
